Assay results taken from PubChem BioAssay AID1963875 (Molecular Pharmacology Branch, DTP, NCI, 2024).

System: KRAS-mutant PDC complex spheroid viability
Experiment: Anticancer human tumor 186277-243-T-J2-PDC patient-derived colon adenocarcinoma cell line growth inhibition [KRAS2]
Settings: for IC50: curve of first compound; for viability, T/C: stronger effect = lower value
How it was run: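 KRAS-mutant tumor cells were grown as spheroids with HUVEC endothelial cells and human MSCs as stroma. Targeted agents were tested alone and with KRAS pathway inhibitors. Doses started at or near clinical Cmax, or 10 microM, descending half-log.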

[1] = second compound 0.1 µM, first compound 0.000316 µM
[2] = second compound 0.1 µM, first compound 0.001 µM
[3] = second compound 0.1 µM, first compound 0.00316 µM
[4] = second compound 0.1 µM, first compound 0.01 µM
[5] = second compound 0.1 µM, first compound 0.0316 µM
[6] = second compound 0.1 µM, first compound 0.1 µM
[7] = second compound 0.316 µM, first compound 0.000316 µM
[8] = second compound 0.316 µM, first compound 0.001 µM
[9] = second compound 0.316 µM, first compound 0.00316 µM
[10] = second compound 0.316 µM, first compound 0.01 µM
[11] = second compound 0.316 µM, first compound 0.0316 µM
[12] = second compound 0.316 µM, first compound 0.1 µM
[13] = second compound 1 µM, first compound 0.000316 µM
[14] = second compound 1 µM, first compound 0.001 µM
[15] = second compound 1 µM, first compound 0.00316 µM
[16] = second compound 1 µM, first compound 0.01 µM
[17] = second compound 1 µM, first compound 0.0316 µM
[18] = second compound 1 µM, first compound 0.1 µM
[19] = second compound 3.16 µM, first compound 0.000316 µM
[20] = second compound 3.16 µM, first compound 0.001 µM
[21] = second compound 3.16 µM, first compound 0.00316 µM
[22] = second compound 3.16 µM, first compound 0.01 µM
[23] = second compound 3.16 µM, first compound 0.0316 µM
[24] = second compound 3.16 µM, first compound 0.1 µM
[25] = second compound 10 µM, first compound 0.000316 µM
[26] = second compound 10 µM, first compound 0.001 µM
[27] = second compound 10 µM, first compound 0.00316 µM
[28] = second compound 10 µM, first compound 0.01 µM
[29] = second compound 10 µM, first compound 0.0316 µM
[30] = second compound 10 µM, first compound 0.1 µM
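Throughout, for viability, T/C: viability read after seven days of compound exposure; 100% = DMSO vehicle-treated spheroids so lower means less viable.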

SMILES	IC50 (second compound 0.1 µM) [nM]	IC50 (second compound 0.316 µM) [nM]	IC50 (second compound 1 µM) [nM]	IC50 (second compound 3.16 µM) [nM]	IC50 (second compound 10 µM) [nM]	viability, T/C [1] [%]	viability, T/C [2] [%]	viability, T/C [3] [%]	viability, T/C [4] [%]	viability, T/C [5] [%]	viability, T/C [6] [%]	viability, T/C [7] [%]	viability, T/C [11] [%]	viability, T/C [12] [%]	viability, T/C [17] [%]	viability, T/C [18] [%]	viability, T/C [23] [%]	viability, T/C [24] [%]	viability, T/C [29] [%]	viability, T/C [30] [%]	further results
CN(C)C/C=C/C(=O)Nc1cc2c(Nc3ccc(F)c(Cl)c3)ncnc2cc1O[C@H]1CCOC1 + CNCc1ccccc1-c1csc(C(C)Nc2nc(C)nc3cc(OC)c(OC)cc23)c1	> 100	> 100	> 100	7.32	< 0.316	100	100	110	117	127	108	110	109	96	119	95.9	16.4	5.67	0.13	0.33	viability, T/C [8]: 96.2%; viability, T/C [9]: 113%; viability, T/C [10]: 119%; viability, T/C [13]: 108%; viability, T/C [14]: 107%; viability, T/C [15]: 102%; viability, T/C [16]: 120%; viability, T/C [19]: 108%; viability, T/C [20]: 103%; viability, T/C [21]: 109%; viability, T/C [22]: 29%; viability, T/C [25]: 0.21%; viability, T/C [26]: 0.22%; viability, T/C [27]: 0.19%; viability, T/C [28]: 0.15%
CCNC(=O)CC1N=C(c2ccc(Cl)cc2)c2cc(OC)ccc2-n2c(C)nnc21 (stereo not given) + COc1cc2nc(C)nc(NC(C)c3cc(N)cc(C(F)(F)F)c3)c2cc1OC1CCOC1	1910	1310	1160	751	229	–	–	–	–	100	103	–	102	89.2	93.4	108	84.8	110	90.5	90.9	viability, T/C (second compound 0.1 µM, first compound 0.316 µM): 139%; viability, T/C (second compound 0.1 µM, first compound 1 µM): 84.7%; viability, T/C (second compound 0.1 µM, first compound 3.16 µM): 26.7%; viability, T/C (second compound 0.1 µM, first compound 10 µM): 18.8%; viability, T/C (second compound 0.316 µM, first compound 0.316 µM): 124%; viability, T/C (second compound 0.316 µM, first compound 1 µM): 57.1%; viability, T/C (second compound 0.316 µM, first compound 3.16 µM): 28.9%; viability, T/C (second compound 0.316 µM, first compound 10 µM): 24.5%; viability, T/C (second compound 1 µM, first compound 0.316 µM): 123%; viability, T/C (second compound 1 µM, first compound 1 µM): 55%; viability, T/C (second compound 1 µM, first compound 3.16 µM): 24.3%; viability, T/C (second compound 1 µM, first compound 10 µM): 6.44%; viability, T/C (second compound 3.16 µM, first compound 0.316 µM): 107%; viability, T/C (second compound 3.16 µM, first compound 1 µM): 33.3%; viability, T/C (second compound 3.16 µM, first compound 3.16 µM): 13.5%; viability, T/C (second compound 3.16 µM, first compound 10 µM): 14.2%; viability, T/C (second compound 10 µM, first compound 0.316 µM): 34.2%; viability, T/C (second compound 10 µM, first compound 1 µM): 2.69%; viability, T/C (second compound 10 µM, first compound 3.16 µM): 0.68%; viability, T/C (second compound 10 µM, first compound 10 µM): 0.42%
CC(C)n1nc(-c2ccc3oc(N)nc3c2)c2c(N)ncnc21 + C=CC(=O)N1CCN(c2nc(=O)n(-c3c(C)ccnc3C(C)C)c3nc(-c4c(O)cccc4F)c(F)cc23)C(C)C1	12.6	17.6	9.05	4.66	< 0.316	94.8	93.1	86.1	52.6	32.7	19.5	113	34.2	18.9	27.3	20.1	20.1	13.9	14.7	7.97	viability, T/C [8]: 103%; viability, T/C [9]: 87.7%; viability, T/C [10]: 65.6%; viability, T/C [13]: 97.5%; viability, T/C [14]: 107%; viability, T/C [15]: 75.8%; viability, T/C [16]: 48.9%; viability, T/C [19]: 98%; viability, T/C [20]: 89.4%; viability, T/C [21]: 58.6%; viability, T/C [22]: 31.1%; viability, T/C [25]: 45.9%; viability, T/C [26]: 44.6%; viability, T/C [27]: 34.7%; viability, T/C [28]: 16.9%
